Six compounds from US5596002A, “Method of treating chloroquine-resistant malaria with aminoquinoline derivatives” (Hoffmann-La Roche Inc., priority 1993, dated 1997) can be followed below.

What all share (type): cell-based
Assay [1] relates to Plasmodium falciparum, chloroquine-sensitive strain NF54. The assay can be described thus: activity against P. falciparum in vitro, strain NF54. The conditions noted are these: Plasmodium falciparum; chloroquine-sensitive strain NF54; 48 h-72 h; read-out: IC50 (50% growth inhibition). The protocol:
(§1) Test method for the determination of the activity against P. falciparum in vitro
(§2) The preparations of the present invention were tested on intraerythrocytary stages of P. falciparum from asynchronous cultures according to the method of Desjardin et al. (Desjardins, R. E. et al: Quantitative assessment of antimalarial activity in vitro by a semiautomated microdilution technique. Antimicrob. Agents Chemother. 16, 710-718, (1979)).
(§3) The culture medium consisted of RPMI 1640 with the addition of 25 mM HEPES, 25 mM NaHCO3, […] neomycin and 10% human serum (A^+). Human-A^+ erythrocytes were used as the P. falciparum host cells. The parasites were maintained at 37° C. in an atmosphere of 3% O2, 4% CO2, 93% N2 and at 95% relative humidity.
(§4) In order to determine the activity, the preparations were dissolved in DMSO, pre-diluted in the culture medium to a suitable starting concentration and subsequently titrated-out into microtitre plates in the 2nd stage over 6-7 steps. After the addition of the parasite culture (0.7% parasitemia in 2.5% erythrocyte suspension), the test plates were incubated under the conditions given above for 48 h-72 h. The parasite growth in the different preparation concentrations was determined using [G-^3 H]-hypoxanthin incorporation compared to untreated control cultures on the same test plates. The 50% growth inhibition (IC50) was calculated according to logit regression analysis from the resulting dosage-activity curve.
(§5) The preparations were tested on at least one chloroquine-resistant and one chloroquine-sensitive P. falciparum strain. Additional sensitive and resistant strains were also included for further characterization.
(§6) Table 1 below contains the IC50 values measured in vitro for the growth inhibition of chloroquine-sensitive and chloroquine-resistant strains of the human pathogenic Plasmodium falciparum.

Assay [2] concerns Plasmodium falciparum, chloroquine-resistant strain K1. Kind of assay: activity against P. falciparum in vitro, strain K1. The note with it: Plasmodium falciparum; chloroquine-resistant strain K1; 48 h-72 h; read-out: IC50 (50% growth inhibition). The protocol:
as §1, §2, §3, §4, §5, §6

Assay [3] concerns Plasmodium falciparum, chloroquine-resistant strain W2. Kind of assay: activity against P. falciparum in vitro, strain W2. The note with it: chloroquine-resistant strain W2, 48 h-72 h, read-out: IC50 (50% growth inhibition). The protocol:
as §1, §2, §3, §4, §5, §6

Assay [4] deals with Plasmodium falciparum, chloroquine-resistant strain W2 Mef. The assay can be described thus: activity against P. falciparum in vitro, strain W2 Mef. The conditions noted are these: 48 h-72 h, read-out: IC50 (50% growth inhibition). On the procedure:
as §1, §2, §3, §4, §5, §6

Assay [5] deals with Plasmodium falciparum, chloroquine-sensitive strain HB3. The assay can be described thus: activity against P. falciparum in vitro, strain HB3. The conditions noted are these: chloroquine-sensitive strain HB3, 48 h-72 h, read-out: IC50 (50% growth inhibition). The protocol: as §1, §2, §3, §4, §5, §6
The test system of assay [6] is Plasmodium falciparum, chloroquine-resistant strain Indo. The assay can be described thus: activity against P. falciparum in vitro, strain Indo. The conditions noted are these: chloroquine-resistant strain Indo, 48 h-72 h, read-out: IC50 (50% growth inhibition). The protocol: as §1, §2, §3, §4, §5, §6
Assay [7] relates to Plasmodium falciparum, chloroquine-sensitive strain FCH5C2. Kind of assay: activity against P. falciparum in vitro, strain FCH5C2. The note with it: chloroquine-sensitive strain FCH5C2, 48 h-72 h, read-out: IC50 (50% growth inhibition). The protocol:
as §1, §2, §3, §4, §5, §6

Assay [8] concerns Plasmodium falciparum, chloroquine-resistant strain 7G8. Kind of assay: activity against P. falciparum in vitro, strain 7G8. The conditions noted are these: chloroquine-resistant strain 7G8, 48 h-72 h, read-out: IC50 (50% growth inhibition). On the procedure: as §1, §2, §3, §4, §5, §6
In assay [9] the test system is Plasmodium falciparum, chloroquine-sensitive strain RFMEF3. The assay can be described thus: activity against P. falciparum in vitro, strain RFMEF3. The conditions noted are these: chloroquine-sensitive strain RFMEF3, 48 h-72 h, read-out: IC50 (50% growth inhibition). On the procedure:
as §1, §2, §3, §4, §5, §6

For assay [10], the system named is Plasmodium falciparum, chloroquine-resistant strain RFCR3. Kind of assay: activity against P. falciparum in vitro, strain RFCR3. The conditions noted are these: chloroquine-resistant strain RFCR3, 48 h-72 h, read-out: IC50 (50% growth inhibition). On the procedure: as §1, §2, §3, §4, §5, §6
The test system of assay [11] is Plasmodium falciparum, chloroquine-resistant strain ItG2 F6. Kind of assay: activity against P. falciparum in vitro, strain ItG2 F6. The note with it: chloroquine-resistant strain ItG2 F6, 48 h-72 h, read-out: IC50 (50% growth inhibition). On the procedure: as §1, §2, §3, §4, §5, §6
Assay [12] deals with Plasmodium falciparum, chloroquine-sensitive strain Ro7 3. The assay can be described thus: activity against P. falciparum in vitro, strain Ro7 3. The note with it: chloroquine-sensitive strain Ro7 3, 48 h-72 h, read-out: IC50 (50% growth inhibition). The protocol: as §1, §2, §3, §4, §5, §6

Values after ≈ are worked out from the molar mass of the structure shown.

Regarding `CC1(C)CCCN(CCNc2ccnc3cc(Cl)ccc23)C1` [Example 25, (7-Chloro-quinolin-4-yl)-[2-(3,3-dimethyl-piperidin-1-yl)-ethyl]-amine], the IC50 in assay [1] was 8 ng/mL (≈ 0.0252 µM); in assay [2], 22 ng/mL (≈ 0.0692 µM); in [3] it was 26 ng/mL (≈ 0.0818 µM); in assay [4] it was 16 ng/mL (≈ 0.0503 µM); in assay [5], 10 ng/mL (≈ 0.0315 µM); in assay [6], 15 ng/mL (≈ 0.0472 µM). Besides, the IC50 in assay [7] stood at 8 ng/mL (≈ 0.0252 µM); in assay [8], 11 ng/mL (≈ 0.0346 µM); in [9], 8 ng/mL (≈ 0.0252 µM); in assay [10] it was 14 ng/mL (≈ 0.044 µM); in [11] it was 8 ng/mL (≈ 0.0252 µM); in [12] it was 5 ng/mL (≈ 0.0157 µM).
As for `C[C@@H]1CCC[C@H](C)N1CCNc1ccnc2cc(Cl)ccc12` [Example 28, (2R,6S)-(7-Chloro-quinolin-4-yl)-[2-(2,6-dimethyl-piperidin-1-yl)-ethyl]-amine], the IC50 worked out at 7 ng/mL (≈ 0.022 µM) in assay [1]; 16 ng/mL (≈ 0.0503 µM) in assay [2]; 18 ng/mL (≈ 0.0566 µM) in assay [3]; 15 ng/mL (≈ 0.0472 µM) in assay [4]; 11 ng/mL (≈ 0.0346 µM) in assay [5]; 9 ng/mL (≈ 0.0283 µM) in assay [6]. In addition, the IC50 in [7] worked out at 14 ng/mL (≈ 0.044 µM); in assay [8], 9 ng/mL (≈ 0.0283 µM); in assay [9], 9 ng/mL (≈ 0.0283 µM); in [10], 16 ng/mL (≈ 0.0503 µM); in [11], 6 ng/mL (≈ 0.0189 µM); in [12] it was 5 ng/mL (≈ 0.0157 µM).
In the case of `CC1CC(C)CN(CCNc2ccnc3cc(Cl)ccc23)C1` (stereo not drawn) [Example 29, (7-Chloro-quinolin-4-yl)-[2-(3,5-dimethyl-piperidin-1-yl)-ethyl]-amine], the IC50 in assay [1] is 6 ng/mL (≈ 0.0189 µM); in assay [2] it was 16 ng/mL (≈ 0.0503 µM); in assay [3], 15 ng/mL (≈ 0.0472 µM); in [4], 11 ng/mL (≈ 0.0346 µM); in assay [5], 7 ng/mL (≈ 0.022 µM); in assay [6], 7 ng/mL (≈ 0.022 µM). The IC50 in [7] was determined as 6 ng/mL (≈ 0.0189 µM); in [8], 5 ng/mL (≈ 0.0157 µM); in assay [9], 5 ng/mL (≈ 0.0157 µM); in assay [10], 11 ng/mL (≈ 0.0346 µM); in [11], 6 ng/mL (≈ 0.0189 µM); in [12] it was 3 ng/mL (≈ 0.00944 µM).
As to `CC1CCC(C)N1CCNc1ccnc2cc(Cl)ccc12` (stereo not drawn) [Example 30, (7-Chloro-quinolin-4-yl)-[2-(2,5-dimethyl-pyrrolidin-1-yl)-ethyl]-amine], the IC50 in assay [1] was 7 ng/mL (≈ 0.023 µM); in assay [2], 14 ng/mL (≈ 0.0461 µM); in [3], 15 ng/mL (≈ 0.0494 µM); in [4], 8 ng/mL (≈ 0.0263 µM); in assay [5] it was 10 ng/mL (≈ 0.0329 µM); in assay [6], 7 ng/mL (≈ 0.023 µM). Moreover, the IC50 in assay [7] came to 9 ng/mL (≈ 0.0296 µM); in [8], 15 ng/mL (≈ 0.0494 µM); in assay [9], 8 ng/mL (≈ 0.0263 µM); in [10] it was 16 ng/mL (≈ 0.0527 µM); in assay [11], 7 ng/mL (≈ 0.023 µM); in [12] it was 11 ng/mL (≈ 0.0362 µM).
Consider `Clc1ccc2c(NCCN3CCC4CCCCC43)ccnc2c1` (stereo not drawn) [Example 31], for which the IC50 is 5 ng/mL (≈ 0.0152 µM) in [1]; 11 ng/mL (≈ 0.0333 µM) in [2]; 14 ng/mL (≈ 0.0424 µM) in [3]; 7 ng/mL (≈ 0.0212 µM) in assay [4]; 5 ng/mL (≈ 0.0152 µM) in assay [5]; 7 ng/mL (≈ 0.0212 µM) in assay [6]. Besides, the IC50 in assay [7] amounted to 5 ng/mL (≈ 0.0152 µM); in [8], 9 ng/mL (≈ 0.0273 µM); in assay [9], 6 ng/mL (≈ 0.0182 µM); in assay [10], 14 ng/mL (≈ 0.0424 µM); in [11], 7 ng/mL (≈ 0.0212 µM); in assay [12], 5 ng/mL (≈ 0.0152 µM).
In the case of `Clc1ccc2c(NCCN3CC4CCC(CC4)C3)ccnc2c1` [Example 32], the half-maximal inhibitory concentration (IC50) came out at 7 ng/mL (≈ 0.0212 µM) in assay [1]; 16 ng/mL (≈ 0.0485 µM) in assay [2]; 15 ng/mL (≈ 0.0455 µM) in assay [3]; 13 ng/mL (≈ 0.0394 µM) in assay [4]; 9 ng/mL (≈ 0.0273 µM) in assay [5]; 15 ng/mL (≈ 0.0455 µM) in assay [6]. Further, the IC50 in [7] is 9 ng/mL (≈ 0.0273 µM); in assay [8], 15 ng/mL (≈ 0.0455 µM); in [9], 8 ng/mL (≈ 0.0243 µM); in [10] it was 16 ng/mL (≈ 0.0485 µM); in assay [11], 10 ng/mL (≈ 0.0303 µM); in [12], 7 ng/mL (≈ 0.0212 µM).

Broadly, the IC50 is the midpoint of a concentration-inhibition curve.
